One test has as its target T1, human CD39 (Homo sapiens, UniProt P49961).
T1 sequence (P49961 1-510): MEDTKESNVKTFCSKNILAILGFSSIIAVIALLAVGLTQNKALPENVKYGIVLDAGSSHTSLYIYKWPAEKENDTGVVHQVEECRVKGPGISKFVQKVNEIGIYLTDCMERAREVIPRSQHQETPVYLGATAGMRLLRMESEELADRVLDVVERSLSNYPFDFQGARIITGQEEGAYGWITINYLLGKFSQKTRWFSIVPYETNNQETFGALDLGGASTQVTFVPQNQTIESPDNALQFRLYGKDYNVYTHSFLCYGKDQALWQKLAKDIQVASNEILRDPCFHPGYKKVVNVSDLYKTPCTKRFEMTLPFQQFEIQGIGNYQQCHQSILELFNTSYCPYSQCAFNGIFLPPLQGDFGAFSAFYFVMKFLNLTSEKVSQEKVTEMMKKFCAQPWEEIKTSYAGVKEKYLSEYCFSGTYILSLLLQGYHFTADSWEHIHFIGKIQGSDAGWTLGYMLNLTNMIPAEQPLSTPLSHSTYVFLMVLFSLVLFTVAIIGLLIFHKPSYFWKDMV
Description: Malachite green assay for CD39 (natural substrate ATP). In kind it is biochemical. The arrangement: Human umbilical cord membrane preparations (250 ng) natively expressing high amounts of CD39; from tissue; host or cells: human umbilical cord membranes. The note with it: natural substrate ATP 50 µM, n = 3, read-out: Ki ± SEM (converted). The method, then:
They were minced and homogenized with a polytron in 95 mM NaCl, 0.1 mM phenylmethylsulfonyl fluoride (PMSF), and 45 mM Tris solution, pH 7.6. […] The pellets were resuspended in 5 mM Tris buffer solution, pH 8.0 and 10% glycerol. All purification steps were performed at 4°C. The preparations were kept at −80°C.
The reaction buffer contained 10 mM HEPES, 2 mM CaCl2, 1 mM MgCl2, pH 7.4 in a final volume of 50 μl in transparent 96-well half area plates. For CD39 (NTPDase1), we made use of human umbilical cord membranes preparations which express high levels of the enzyme. For the other human NTPDase isoenzymes, we had to resort to recombinant expression. […] The amount of enzyme preparation was adjusted to ensure 10–20% of substrate conversion. […] The released (inorganic) phosphate was quantified after 20 min of gentle shaking at 25°C by measuring the absorption of the malachite green-phosphomolybdate complex at 600 nm using a BMG PheraStar FS plate reader (BMG Labtech GmbH, Ortenberg, Germany).
% Inhibition=(B−T)/B*100%
where B is the average corrected absorption of the positive control without inhibitor and T the corrected absorption in the presence of test compound.
Full concentration-inhibition curves were determined with inhibitor concentrations ranging from 0.1 to 300 µM in the presence of 2% DMSO. Three independent experiments were performed (n = 3) and curves were calculated by the GraphPad Prism 8 software. The Ki value was calculated using the Cheng-Prusoff equation for competitive inhibitors: […]

A further test has as its system P2 receptors. The arrangement: method as in Robson et al., 2006. The note with it: ref Robson et al., 2006; cited from earlier work.

For `CCCCNc1nc2c(NC)ncnc2n1[C@@H]1O[C@H](COP(=O)(O)OP(=O)(O)C(Br)(Br)P(=O)(O)O)[C@@H](O)[C@H]1O` [Compound 33, (Dibromo((((((2R,3S,4R,5R)-5-(8-(butylamino)-6-(methylamino)-9H-purin-9-yl)-3,4-dihydroxy-tetrahydrofuran-2-yl)methoxy)(hydroxy)phosphoryl)oxy)-(hydroxy)phosphoryl)methyl)-phosphonic Acid], on human CD39, the Ki (in general, a measure of affinity in units of concentration, obtained from inhibition or displacement) was 3.35 µM.
Consider `CCN(CC)c1ncnc2c1ncn2[C@@H]1O[C@H](COP(=O)(O)OP(=O)(O)C(Br)(Br)P(=O)(O)O)[C@@H](O)[C@H]1O` [ARL67156, (Dibromo((((((2R,3S,4R,5R)-5-(6-(diethylamino)-9H-purin-9-yl)-3,4-dihydroxytetrahydrofuran-2-yl)methoxy)-(hydroxy)-phosphoryl)oxy)(hydroxy)phosphoryl)methyl)-phosphonic Acid, reference compound], for which the “effect on P2 receptors” value in the test on P2 receptors is reported as “no significant effect”.
